Reference: patent publication US20250270255A1, “CASPASE-2 INHIBITOR COMPOUNDS” (KINTSUGI THERAPEUTICS S.L., priority 2021, published 2025)
Read-outs that look alike come from different tables or passages of the source. Where a SMILES comes first, the peptide text is derived from it. The star is where a group is joined. AspCH2OBz(2,6-Me2) = Cc1cccc(C)c1C(=O)OCC(=O)[C@H](CC(=O)O)N*

Assays:
caspase-3 [1] = molecular target: T1, caspase-3 (Homo sapiens, UniProt P42574); assay: Determination of Ki and IC50 inhibition parameters; format: biochemical; conditions: for Ki: Morrison equation, 15 min pre-incubation with inhibitor at 37 C
T1 construct: made in house
T1 sequence (P42574 29-175 limits assumed): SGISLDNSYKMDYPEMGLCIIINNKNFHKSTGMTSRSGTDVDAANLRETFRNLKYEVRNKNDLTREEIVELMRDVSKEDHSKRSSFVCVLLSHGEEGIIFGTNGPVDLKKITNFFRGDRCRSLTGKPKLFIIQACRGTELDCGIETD
T1 sequence (P42574 176-277 limits assumed): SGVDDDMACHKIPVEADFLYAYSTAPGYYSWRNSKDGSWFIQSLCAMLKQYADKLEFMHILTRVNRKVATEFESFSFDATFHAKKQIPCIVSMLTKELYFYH
Procedure: (§1) The detailed protocol for the expression and purification of human apoptotic caspases can be found elsewhere (Stennicke, 1999).
(§2) The measurement of Ki and IC50 inhibition parameter of synthesized inhibitors towards caspases-2, -3, and -8 was performed using a fMax spectrofluorimeter (Molecular Devices, Sunnyvale, CA, USA) operating in fluorescence kinetic mode in 96-well Corning (Corning, NY, USA) plates. Before kinetic analysis, all caspases were active site-titrated using the zVAD-fmk inhibitor (Cayman Chemical Company, Cat No. 14467). The caspases assay buffer was 10% w/v sucrose, […], 20 mM Pipes, 10 mM NaCl, 1 mM EDTA, and 10 mM DTT (pH=7.3). Buffers were prepared at room temperature, and all kinetic assays were performed at 37° C. The Ki parameter was measured using the Morrison equation (Copeland, 2000). For each caspase, an appropriate ACC-fluorogenic substrate was used to monitor substrate hydrolysis: NH-Idc-hGlu-Thr(Bzl)-Ser-Asp-ACC (50 uM) for caspase-2, Ac-DEVD-ACC (100 uM) for caspase-3 and Ac-LEHD-ACC (100 uM) for caspase-8. The ACC fluorescence was monitored using 355 nm (excitation) and 460 nm (emission) wavelengths. To meet the criteria for reversible inhibitor kinetics, the lowest inhibitor concentration was at least 4-fold higher that the caspase concentration in the assay. The caspase (60 uL) was first pre-warmed in the assay buffer in the 96-well plate for 15 min at 37 C and then pre-incubated with the inhibitor (20 uL) for another 15 min at 37 C. Next, the substrate (20 uL) was added to the enzyme-inhibitor mixture and the progress of reaction (ACC release) was monitored over time. The Ki parameter was calculated from Morrison equation, and the IC50 parameter was calculated using the formula: IC50=Ki×(1+[S]/Km], where the [S] is substrate concentration used in the assay and Km is a Michaelis-Menten constant for a substrate. All the measurements were performed at least three times and the data was analyzed using GraphPad Prism 7 software.

caspase-8 [2] = molecular target: T2, caspase-8 (Homo sapiens, UniProt Q14790); assay: Determination of Ki and IC50 inhibition parameters; format: biochemical; conditions: for Ki: Morrison equation, 15 min pre-incubation with inhibitor at 37 C
T2 construct: made in house

caspase-2 [3] = molecular target: T3, caspase-2 (Homo sapiens, UniProt P42575); assay: Determination of kobs/I inhibition parameter; format: biochemical; parameters: made in house; conditions: pH 7.3; pseudo-first-order conditions; substrate NH-Idc-hGlu-Thr(Bzl)-Ser-Asp-ACC 50 uM; 37° C.
T3 sequence (P42575 170-325 limits assumed): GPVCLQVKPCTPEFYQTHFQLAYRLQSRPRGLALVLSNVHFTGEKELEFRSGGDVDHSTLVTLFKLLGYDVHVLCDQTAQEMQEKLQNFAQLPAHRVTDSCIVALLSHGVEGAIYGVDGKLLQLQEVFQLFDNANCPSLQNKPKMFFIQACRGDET
T3 sequence (P42575 348-452 limits assumed): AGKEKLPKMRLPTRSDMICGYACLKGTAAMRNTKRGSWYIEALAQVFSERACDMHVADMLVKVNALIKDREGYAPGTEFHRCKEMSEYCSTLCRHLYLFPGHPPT
Procedure: (§3) The measurement of kobs/l inhibition parameter (second order rate of enzyme inhibition) of synthesized inhibitors towards caspases-2, -3, and -8 was performed using a fMax spectrofluorimeter (Molecular Devices, Sunnyvale, CA, USA) operating in fluorescence kinetic mode in 96-well Corning (Corning, NY, USA) plates. Before kinetic analysis, all caspases were active site-titrated using the zVAD-fmk inhibitor (Cayman Chemical Company, Cat No. 14467). The caspases assay buffer was 10% w/v sucrose, […], 20 mM Pipes, 10 mM NaCl, 1 mM EDTA, and 10 mM DTT (pH=7.3). Buffers were prepared at room temperature, and all kinetic assays were performed at 37° C. The kobs/l parameter was measured under pseudo-first-order kinetic conditions ([I]>>[E]). […] The ACC fluorescence was monitored using 355 nm (excitation) and 460 nm (emission) wavelengths. […] At the same time in a separate tube, the caspase was preincubated in assay buffer at 37 C, and after 15 min, the enzyme was added to wells (60 uL per well, total reaction volume 100 uL) and the fluorescence was monitored for 30 min, starting immediately. Second-order rate of inhibition (Kobs/l) was determined in at least three independent experiments and presented as an average value. […]

caspase-2 [4] = molecular target: T3, caspase-2; assay: Determination of Ki and IC50 inhibition parameters; format: biochemical; parameters: made in house; conditions: for Ki: Morrison equation, 15 min pre-incubation with inhibitor at 37 C; for IC50: calculated as IC50=Ki×(1+[S]/Km), substrate NH-Idc-hGlu-Thr(Bzl)-Ser-Asp-ACC 50 uM
Procedure: as §1, §2

caspase-8 [5] = molecular target: T2, caspase-8; assay: Determination of kobs/I inhibition parameter; format: biochemical; conditions: pH 7.3; pseudo-first-order conditions; substrate Ac-LEHD-ACC 100 uM; 37° C.
Procedure: as §3

caspase-3 [6] = molecular target: T1, caspase-3; assay: Determination of kobs/I inhibition parameter; format: biochemical; conditions: pH 7.3; pseudo-first-order conditions; substrate Ac-DEVD-ACC 100 uM; 37° C.
Procedure: as §3

caspase-2 [7] = molecular target: T3, caspase-2; conditions: state of the art; cited from earlier work
HepG2 cells = assay: Intracellular lipid accumulation, in vitro cellular model of NASH; format: cell-based; parameters: inhibition of intracellular lipid-accumulation: dose or concentration left out as unconfirmed; conditions: for inhibition of intracellular lipid-accumulation: NASH-triggered HepG2 cultures, FIG. 4
Procedure: HepG2 cells (50.000 cells/well) were plated into 12-multiwell culture dishes on coverslips previously coated with collagen (2 mg/mL collagen solution (BD Biosciences) in PBS incubated at 37° C. for 30 min).
Cells were treated with a “NASH cocktail”: DMEM containing 4.5 mg/mL glucose supplemented with 10% (v/v) FBS, 1% (v/v) PenStrep and 2 mM L-glutamine plus fatty acids (100 μM sodium oleate and 100 μM palmitic acid), 100 nM insulin (all Sigma-Aldrich) and inflammatory cytokines (50 ng/ml tumor necrosis factor, TNF-α (Prospec), 25 ng/ml interleukin IL-1β (Petroteck) and 8 ng/ml transforming growth factor, TGF-β (R&D Systems)). The cells were exposed for 24h to this “NASH cocktail” and KIN compounds were concomitantly added at different concentrations.
At the end of treatments cells were washed with PBS and incubated with staining solution (BODIPY493/503 (Thermo Fisher Scientific) for 15 min at 37° C. Then cells were washed three times with PBS and were fixed in 4% PFA for 30 min at room temperature. After three additional washes with PBS, coverslips were mounted onto glass slides with a drop of Prolong® Gold antifade reagent (Invitrogen) with DAPI overnight at room temperature. Fluorescence micrographs were taken using an Axoimagen M1 microscope (Zeiss, Oberkochen, Germany) and fluorescent signals (DAPI and BODIPY) were quantified using ImageJ (n=10). The intracellular lipid load was calculated as a function of BODIPY™ 493/503 lipid dye area.
An in vitro cellular model of NASH was used to test the efficacy of caspase-2 inhibitors preventing intracellular accumulation of lipids. In this model, HepG2 cells are exposed for 24 h to “NASH conditions” including lipogenic (glucose, insulin, fatty acids) and inflammatory and pro-apoptotic (TNF-α, IL-1β, and TGF-β) triggers. […] This model has shown to correlate with human NASH pathology (Boeckmans et al. 2019).

caspase-2 [8] = molecular target: T3, caspase-2; conditions: Poreba et al. (2019); cited from earlier work
caspase-2 [9] = molecular target: T3, caspase-2; assay: Kinetic assay of substrates NH-Idc-P4-P3-Dab-Asp-ACC (Example 4); format: biochemical; conditions: substrate 10 μM; caspase-2 10 nM; 37° C.
Procedure: Prior to kinetic assay, substrates (several L) were diluted in DMSO to the […] (working concentration). Next, 1 μL of such substrate was spot into the well of 96-well plate following by the addition of […] of caspase-2 in buffer. Immediately after the enzyme was added, the plate was placed in fluorescence plate reader and the fluorescence was measured over the time in a kinetic mode (excitation 355 nm, emission 460 nm). The liberation of fluorescence was carried out for 30 minutes, and only linear portion of the plot was taken for analysis to calculate the rate of the reaction. The rate of best cleaved substrate was set to 100% and all other substrates were adjusted accordingly (cleavage rate, %). The final concentration of substrate was 10 μM, and the final concentration of caspase-2 was 10 nM. The caspase-2 assay buffer was 20 mM Pipes, 100 mM NaCl, sucrose 10% (w/v), 10 mM DTT, pH 7.2-7.4. The caspase-2 was preincubated in buffer at 37° C. for 15 min before added to the substrate.

[10] = calculated as IC50=Ki×(1+[S]/Km), substrate Ac-DEVD-ACC 100 uM
[11] = calculated as IC50=Ki×(1+[S]/Km), substrate Ac-LEHD-ACC 100 uM

T2 sequence (Q14790 217-374 limits assumed): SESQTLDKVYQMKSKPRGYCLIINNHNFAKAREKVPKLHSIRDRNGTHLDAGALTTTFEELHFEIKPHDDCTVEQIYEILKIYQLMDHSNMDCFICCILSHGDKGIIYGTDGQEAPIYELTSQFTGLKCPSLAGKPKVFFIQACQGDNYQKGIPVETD
T2 sequence (Q14790 385-479 limits assumed): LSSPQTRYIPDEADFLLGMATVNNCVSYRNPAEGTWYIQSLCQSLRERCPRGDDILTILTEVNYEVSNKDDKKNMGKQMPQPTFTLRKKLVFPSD

| Ki (caspase-8 [2]) [nM] | Ki (caspase-2 [4]) [nM] | IC50 (caspase-2 [4]) [nM] | Ki (caspase-3 [1]) [nM] | IC50 (caspase-3 [1]; [10]) [nM] | IC50 (caspase-8 [2]; [11]) [nM] | Compound | inhibition of intracellular lipid-accumulation (HepG2 cells) | other results |
| --- | --- | --- | --- | --- | --- | --- | --- | --- |
| 2.2 | 0.4 | 4.9 | – | – | – | CC(=O)N[C@H](C(=O)N[C@@H](CC(=O)O)C(=O)N[C@H](C(=O)N[C@@H](C)C(=O)N[C@@H](CC(=O)O)C(=O)COC(=O)c1c(C)cccc1C)C(C)C)C(C)C [Ac-Val-Asp-Val-Ala-Asp-AOMK, reference compound] (Ac-VDVA-{AspCH2OBz(2,6-Me2)}) | – | IC50 (caspase-3 [1]): 0.1 nM; IC50 (caspase-8 [2]): 16 nM; kinact/KI (caspase-2 [3]): 643 M⁻¹ s⁻¹; kinact/KI (caspase-8 [5]): 98.4 M⁻¹ s⁻¹; kinact/KI (caspase-3 [6]): 1.36e+06 M⁻¹ s⁻¹ |
| – | – | – | – | – | – | Ac-VDVAD-aldehyde | – | potency against caspase-3 compared with caspase-2 (caspase-2 [7]): more potent against caspase-3 than to caspase-2 |
| 209 | 1.1 | 12 | 29.3 | 193 | 1540 | NH-Idc-hGlu-Thr(Bzl)-Dab-Asp-AOMK [Compound 2] | significantly higher percentage of inhibition than NH-23-C2 compound | – |
| 6.7 | 0.8 | 8.8 | 3.8 | 24.8 | 49.8 | NH-Idc-hGlu-Thr(Bzl)-Lys-Asp-AOMK [Compound 1] | significantly higher percentage of inhibition than NH-23-C2 compound | efficacy inhibiting intracellular lipid accumulation (HepG2 cells; HepG2 under NASH conditions, inhibitors at 10, 20 and […], FIG. 5): better efficacy than NH-23-C2 |
| 43.3 | 0.7 | 7.4 | 13.8 | 91 | 320 | NH-Idc-hGlu-Thr(Bzl)-Orn-Asp-AOMK [Compound 3] | significantly higher percentage of inhibition than NH-23-C2 compound | – |
| 6.2 | 0.7 | 7.9 | 1.1 | 7.1 | 46.2 | NH-Idc-hGlu-Thr(Bzl)-Ser-Asp-AOMK [reference compound] | – | Caspase-2 inhibitory activity (caspase-2 [8]): highest Caspase-2 inhibitory activity among the assayed compounds; selectivity for Caspase-3 (caspase-2 [8]): no selectivity for Caspase-3; selectivity for Caspase-8 (caspase-2 [8]): limited selectivity for Caspase-8 |
| – | – | – | – | – | – | NH-Idc-hLeu-Thr(Bzl)-Dab-Asc-ACC | – | RFU/s, %, average (cleavage rate, best substrate set to 100%) (caspase-2 [9]): 0.0% |
